Experimental data taken from patent US20240093034A1, “FLUORESCENT DYES” (EXOPHARM LIMITED, priority 2020, published 2024).

Columns and labels:
CD4+ T cells = experiment: Multi-donor mixed lymphocyte reaction (mdMLR) assay; type: cell-based, human
Text: The immunomodulatory potential of dye 2-labelled and non-labelled MSC-EV preparations were compared in a multi-donor mixed lymphocyte reaction assay (MLR) as described previously (Madel et al., 2020, Independent human mesenchymal stromal cell-derived extracellular vesicle preparations differentially affect symptoms in an advanced murine Graft-versus-Host-Disease model. bioRxiv, 2020.2012.2021.423658). Briefly, Ficoll prepared peripheral blood mononuclear cells (PBMC) of 12 healthy donors were mixed in equal proportions, aliquoted and stored in the vapour phase of liquid nitrogen until usage. After thawing 600,000 cells were seeded per well of a 96-well U-bottom shape plates (Corning, Kaiserslautern, Germany) and cultured in 10% human AB serum (produced in house) and 100 U/mL penicillin and 100 µg/mL streptomycin (Thermo Fisher Scientific) supplemented RPMI 1640 medium (Thermo Fisher Scientific) in a final volume of 200 μL per well, either in the presence or absence of MSC-EV preparations to be tested. After 5 days, cells were harvested, stained with a collection of different fluorescent labelled antibodies (CD4-BV785; BioLegend, San Diego, CA, USA; CD25-PE-Cy5.5; BD Bioscience; and CD54-AF700; EXBIO) and analysed on a Cytoflex flow cytometer (Software CytExpert 2.3, Beckman-Coulter). […]

MSC-EVs = experiment: Dye labelling of MSC-EV preparations analysed by imaging flow cytometry (IFCM)
Description: MSC-EVs were prepared form human platelet lysate containing MSC-conditioned media by polyethylene glycol 6000 precipitation followed by ultracentrifugation, as described previously (Borger, V. et al, 2020, Scaled Isolation of Mesenchymal Stem/Stromal Cell-Derived Extracellular Vesicles. Curr Protoc Stem Cell Biol 55, e128; Kordelas et al., 2014, MSC-derived exosomes: a novel tool to treat therapy-refractory graft-versus-host disease. Leukemia 28, 970-973; Ludwig et al., 2018, Precipitation with polyethylene glycol followed by washing and pelleting by ultracentrifugation enriches extracellular vesicles from tissue culture supernatants in small and large scales. J Extracell Vesicles 7, 1528109). Conditioned media were harvested every 48 h. Obtained MSC-EV preparations were diluted in NaCl-HEPES buffer (Sigma-Aldrich, Taufkirchen, Germany) such that 1 mL of final samples contained the preparation yield of the conditioned media of approximately 4.0×10^7 cells.
The staining with CFSE (Thermo Fisher Scientific, Darmstadt, Germany) was based on the manufacturer's protocol. Slight modifications were required to reduce the signal from unbound CFSE. Briefly, the CFSE stock solution was diluted to a working solution of 10 μM CFSE. The solution was centrifuged three times for 10 min at 17,000 × g. Subsequently, 25 μL of MSC-EV preparations, corresponding to the amount of EVs derived from 1×10^6 MSCs, were incubated with the centrifuged CFSE solution for 20 min at 37° C. The sample was diluted 1:20 to a final volume of 1 mL prior to analysis.
The staining of MSC-EV preparations with Calcein AM followed the manufacturer's instructions. Briefly, 25 μL of MSC-EV preparations were incubated with 25 μL of a 20 μM solution of Calcein AM (Thermo Fisher Scientific) for 40 min at 37° C. The sample was diluted 1:20 to a final volume of 1 mL to reduce background noise, avoiding the requirement of a washing step.
The staining of MSC-EV preparations with BODIPY-TR-Ceramide followed the manufacturer's instructions. Briefly, 25 μL of the MSC-EV preparation, corresponding to EVs purified from […], were incubated with 25 μL of a 20 μM solution of BODIPY TR Ceramide (Thermo Fisher Scientific) for 20 min at 37° C. 450 μL of 0.9% NaCl with 10mM HEPES (0.9% NaCl, Melsungen, B. Braun; HEPES, Thermo Fisher Scientific) buffer was added and the EVs were washed by using a Centrifugal Concentrator (Vivaspin 500; Sartorius, Gottingen, Germany). The retentate was adjusted to 500 μL prior to analysis.
The staining of MSC-EV preparations with PKH67 followed the manufacturer's instructions for labeling EVs (Thermo Fisher Scientific). Briefly, using 200 μL of given MSC-EV preparations, corresponding to EVs purified from 8×10^6 cells, the solution was adjusted with Diluent C to a final volume of 1 mL. […]

influence on activation status of CD4+ T cells (CD4+ T cells; buffer solved dye alone): did not influence the activation status
SMILES: CCCCCCCCCCCCCCCCCCN(C)C(=O)c1ccccc1-c1c2ccc(=[N+](CC)CC)cc-2oc2cc(N(CC)CC)ccc12.[Cl-] [Dye 2, Rhodamine B N-methyloctadecylamide]
reduction in CD4+ T cell activation (CD4+ T cells; dye 2-labelled MSC-EV preparations (n=3), versus non-labelled): comparable reduction
labelling of sEVs in MSC-EV preparations (conclusion) (MSC-EVs; IFCM, with anti-CD9, anti-CD63, anti-CD81 counterstaining where done): successfully labels most of the sEVs
labelled objects in MSC-EV preparations (FIG. 8) (MSC-EVs; dye + MSC-EVs): solid populations of labelled objects were observed
